Literature values, collected in US8404891B2, “Storage-stable formulation of paracetamol in aqueous solution” (Neogen N.V., priority 2009, dated 2013).

Conditions: aqueous solution; K. T. Koshy et al., 1961

CC(=O)Nc1ccc(O)cc1 [paracetamol, N-(4-hydroxy-phenyl)acetamide]
pH at which rate of degradation is minimal: ~6
